Experimental data taken from patent US20250367170A1, “TOPICAL ANGIOTENSIN II RECEPTOR BLOCKERS (ARBS) FOR TREATING EYE CONDITIONS” (The Cleveland Clinic Foundation, priority 2022, published 2025).

Experiments:
Type in all cases: in vivo, New Zealand White rabbits
[1] = test system: rabbit corneas after Descemetorhexis; test: Slit lamp opacity, scarring fibrosis and neovascularization one month after Descemetorhexis or sham surgery; conditions: for intensity of opacity in a 2.5 mm circle of central cornea (ImageJ) vs vehicles or oral losartan alone: P<0.05
Method: All procedures involving animals were approved by the Institutional Animal Care and Use Committee (IACUC) at the Cleveland Clinic Foundation (Cleveland, OH, USA) and the Animal Care and Use Review Office of the Department of the Army (Fort Detrick, MD). All animals were treated in accordance with the tenets of the ARVO Statement for the Use of Animals in Ophthalmic and Vision Research. Twenty-eight 10- to 15-week-old female New Zealand White rabbits weighing 2.5 to 3.0 kg each were included in this study—four in each group.
The rabbits had general anaesthesia with 30 mg/kg ketamine hydrochloride and 5 mg/kg xylazine by IM injection. In addition, topical proparacaine hydrochloride 1% (Alcon, Ft Worth, TX, USA) was applied to each eye prior to the surgery. One cornea selected at random in each group either had sham surgery without Descemetorhexis or an 8 mm diameter central Descemet's membrane-endothelial excision. The time point of one month after surgery was selected for the study because myofibroblasts and fibrosis in the posterior cornea was maximal at this time point in a prior time course Descemetorhexis study (Sampaio et al., 2021). Descemetorhexis was performed as described in the prior study (Sampaio et al., 2021). Briefly, a wire lid speculum was placed into one eye of each rabbit and an 8 mm diameter gentian violet circle was marked on the epithelial surface for reference. A limbal entry incision was created with a 1.6 mm blade (Bausch and Lomb, Rochester, NY, USA) and 0.3 ml Healon OVD (Abbott Medical Optics Inc. Santa Ana, CA, USA) was injected into the anterior chamber. A reversed Sinskey hook (Katena, Denville, New Jersey, USA) was placed into the anterior chamber and an 8 mm diameter disc of Descemet's membrane and endothelium was excised underlying the 8 mm area previously marked on the anterior corneal surface, without a subsequent endothelial corneal transplant. No removal of Descemet's membrane or endothelium was performed in unwounded sham surgery eyes. Remaining Healon OVD was removed with a Simcoe irrigation and aspiration cannula (Bausch & Lomb, Storz, Rochester, NY, USA) and the anterior chamber was filled with balanced salt solution (BSS). A single 10-0 nylon suture was placed at the incision site to prevent leakage from the anterior chamber. One drop of ciprofloxacin (Alcon, Ft. Worth, TX, USA) was applied to the corneas immediately after surgery and four times a day until the epithelium entry wound healed at approximately 2 days.
The oral solution was prepared with 5 ml distilled water+50 ml ora-plus (suspending vehicle—Perrigo, Dublin, Ireland)+45 ml Ora-sweet (flavored syrup vehicle—Perrigo).
After one month of treatment, study eyes were dilated with two drops of 1% tropicamide (Akom Co., Lake Forest, IL) for thirty minutes. After general anaesthesia, the study eye in each rabbit had standardized slit lamp photographs at 20× magnification with a Haag Streit (Mason, OH, USA) BX900 slit lamp photography system using identical lighting position and intensity. For each study eye, the intensity of a 2.5 mm diameter central circle (not including the light reflex, examples shown in FIG. 1) was determined using ImageJ 1.53a analysis software. Statistical comparisons of the intensity of opacity was performed using the Kruskal-Wallis test followed by post-hoc Dunn's-Bonferroni test and p<0.05 was considered statistically significant

collagen type IV = test: IHC collagen type IV intensity in posterior stroma (ImageJ) after Descemetorhexis; conditions: one month
Method: (§1) Duplex immunohistochemistry (IHC) was performed after masking of slides by a researcher not involved in the analysis using previously described methods (de Oliveira et al., 2021) using primary antibodies (Table 2) confirmed by western blotting and IHC to recognize rabbit antigens or isotypic control antibodies (ThermoFisher Scientific, Waltham, MA), and secondary fluorescent tagged antibodies (Table 3).
The AB769 (Millipore, Temecula CA) collagen type IV antibody used in this study was generated against purified human and bovine collagen type IV, affinity purified with human and bovine collagen type IV crosslinked to agarose and cross-absorbed by the manufacturer with human and bovine collagens type I, II, III, V and VI to eliminate cross-reactivity. This antibody was shown previously to bind rabbit collagen IV in IHC (Sampaio et al., in press). […]
Collagen type IV intensity in immunohistochemistry images was quantitated in 0.75 W×0.5H rectangles of posterior stroma tangent to the posterior corneal surface using ImageJ on 7.62 cm wide×5.69 cm height and 300 DPI images generated using standardized microscopic illumination settings applied to all sections. The quantitation rectangles were positioned such that the posterior side of the rectangle was tangent to the posterior corneal surface just anterior to Descemet's membrane, if one was present, in the analysed specimens. […]

TGF beta-1 = test: IHC TGF beta-1 in posterior stroma after Descemetorhexis; conditions: topical and/or oral losartan
Method: as §1
The AB769 (Millipore, Temecula CA) collagen type IV antibody used in this study was generated against purified human and bovine collagen type IV, affinity purified with human and bovine collagen type IV crosslinked to agarose and cross-absorbed by the manufacturer with human and bovine collagens type I, II, III, V and VI to eliminate cross-reactivity. This antibody was shown previously to bind rabbit collagen IV in IHC (Sampaio et al., in press). The keratocan antibody was raised against peptide H2N-[…]-OH (SEQ ID NO:1).

[2] = Descemetorhexis, topical losartan

SMILES: CCCCc1nc(Cl)c(CO)n1Cc1ccc(-c2ccccc2-c2nn[nH]n2)cc1 [losartan]
- scarring fibrosis and neovascularization compared to vehicle control corneas ([1]; Descemetorhexis, oral 5 mg/kg three times a day): no difference
- scarring fibrosis (slit lamp) ([1]; Descemetorhexis, topical 0.1 mg/ml six times per day): overall decrease
- changes in corneal opacity and neovascularization compared with topical losartan alone ([1]; Descemetorhexis, topical 0.1 mg/ml six times per day and oral 5 mg/kg three times a day): not different
- intensity of opacity in a 2.5 mm circle of central cornea (ImageJ) vs vehicles or oral losartan alone ([1]; Descemetorhexis, topical and oral losartan): significant decrease
- corneal neovascularization that developed after Descemetorhexis [1, 2]: reduced
- intensity of opacity in a 2.5 mm circle of central cornea (ImageJ) vs vehicles or oral losartan alone [1, 2]: significant decrease
- effect on the transparency of sham unwounded corneas ([1]; oral 5 mg/kg three times per day): no effect
- effect on the transparency of sham unwounded corneas ([1]; topical 0.1 mg/ml six times per day): no effect
- posterior stromal collagen type IV production vs topical and oral vehicle (collagen type IV; topical and oral losartan): significantly decreased
- posterior stromal collagen type IV production vs topical and oral vehicle (collagen type IV; topical losartan): significantly decreased
- levels of TGF beta-1 in the posterior stroma or at the posterior stromal surface vs vehicle (TGF beta-1): No effect
